Columns and labels:
Assay in all cases: relative viability (nuclei count vs DMSO), 5 days (fraction); higher = more cells survive
[1] = compound: CC1=C(C=CC(=C1)[N+](=O)[O-])NS(=O)(=O)C2=C(C=CC(=C2)Cl)Cl [FH535]
How it was run: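 Viability here means nuclei in treated wells divided by nuclei in vehicle wells, reported as the median across plates. Only plates with control CV below 25% and at least one doubling passed. Lung cancer cell lines in 1536-well plates were exposed to five √10-spaced library-drug doses for 5 days and counted from 4× Hoechst images in MetaXpress.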

[2] = compound: CC1=C(C=CC(=C1)[N+](=O)[O-])NS(=O)(=O)C2=C(C=CC(=C2)Cl)Cl [FH535] + Cc1nc(NC(=O)N2CCC[C@H]2C(N)=O)sc1-c1ccnc(C(C)(C)C(F)(F)F)c1 [Alpelisib] (partner 2 µM)
How it was run: (§1)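 Cells from lung cancer lines were seeded into 1536-well plates and, one day later, dosed by pin tool. Treatments were either a single drug or a fixed dose of an anchor drug with five library-drug doses (not always all listed) in √10 steps. After 5 days, nuclei were stained in a one-step fixation (final 0.05% Triton X-100, 1% formaldehyde, 1 ug/ml Hoechst) and counted on 4× images, and relative viability is the treated-to-vehicle nuclei ratio, as the median of duplicate plates.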

[3] = compound: CC1=C(C=CC(=C1)[N+](=O)[O-])NS(=O)(=O)C2=C(C=CC(=C2)Cl)Cl [FH535] + O=C(c1cc(Cc2n[nH]c(=O)c3ccccc23)ccc1F)N1CCN(C(=O)C2CC2)CC1 [Olaparib] (partner 8 µM)
How it was run: as §1

[4] = compound: CC1=C(C=CC(=C1)[N+](=O)[O-])NS(=O)(=O)C2=C(C=CC(=C2)Cl)Cl [FH535] + CS(=O)(=O)CCNCc1ccc(-c2ccc3ncnc(Nc4ccc(OCc5cccc(F)c5)c(Cl)c4)c3c2)o1 [Lapatinib] (partner 2 µM)
How it was run: as §1

[5] = compound: CC1=C(C=CC(=C1)[N+](=O)[O-])NS(=O)(=O)C2=C(C=CC(=C2)Cl)Cl [FH535] + CS(=O)(=O)N1CCN(Cc2cc3nc(-c4cccc5[nH]ncc45)nc(N4CCOCC4)c3s2)CC1 [Pictilisib] (partner 1 µM)
How it was run: as §1

[6] = compound: CC1=C(C=CC(=C1)[N+](=O)[O-])NS(=O)(=O)C2=C(C=CC(=C2)Cl)Cl [FH535] + C[C@]1(O)C[C@@H](c2nc(-c3ccc4ccc(-c5ccccc5)nc4c3)c3c(N)nccn32)C1 [Linsitinib] (partner 1 µM)
How it was run: as §1

[7] = compound: CC1=C(C=CC(=C1)[N+](=O)[O-])NS(=O)(=O)C2=C(C=CC(=C2)Cl)Cl [FH535] + COc1cc2c(Oc3ccc(NC(=O)C4(C(=O)Nc5ccc(F)cc5)CC4)cc3F)ccnc2cc1OCCCN1CCOCC1 [Foretinib] (partner 0.25 µM)
How it was run: as §1

[8] = compound: CC1=C(C=CC(=C1)[N+](=O)[O-])NS(=O)(=O)C2=C(C=CC(=C2)Cl)Cl [FH535] + C[C@@H](Oc1cc(-c2cnn(C3CCNCC3)c2)cnc1N)c1c(Cl)ccc(F)c1Cl [Crizotinib] (partner 1 µM)
How it was run: as §1

[9] = compound: CC1=C(C=CC(=C1)[N+](=O)[O-])NS(=O)(=O)C2=C(C=CC(=C2)Cl)Cl [FH535] + CC1(C)CCC(c2ccc(Cl)cc2)=C(CN2CCN(c3ccc(C(=O)NS(=O)(=O)c4ccc(N[C@H](CCN5CCOCC5)CSc5ccccc5)c(S(=O)(=O)C(F)(F)F)c4)cc3)CC2)C1 [Navitoclax] (partner 0.5 µM)
How it was run: as §1

[10] = compound: CC1=C(C=CC(=C1)[N+](=O)[O-])NS(=O)(=O)C2=C(C=CC(=C2)Cl)Cl [FH535] + CC(C)C[C@H](NC(=O)[C@H](Cc1ccccc1)NC(=O)c1cnccn1)B(O)O [Bortezomib] (partner 0.002 µM)
How it was run: as §1

[11] = compound: CC1=C(C=CC(=C1)[N+](=O)[O-])NS(=O)(=O)C2=C(C=CC(=C2)Cl)Cl [FH535] + O=C(CCCCCCC(=O)Nc1ccccc1)NO [Vorinostat] (partner 1 µM)
How it was run: as §1

**Q.** Which results are given for Calu-6?
**A.** relative viability ([1]; 0.04 µM): 0.938; relative viability ([1]; 0.1265 µM): 1.05; relative viability ([1]; 0.4 µM): 0.956; relative viability ([1]; 1.265 µM): 0.792; relative viability ([2]; first compound 0.04 µM): 1.07; relative viability ([2]; first compound 0.1265 µM): 0.982; relative viability ([2]; first compound 0.4 µM): 0.866; relative viability ([2]; first compound 1.265 µM): 0.87; relative viability ([3]; first compound 0.04 µM): 0.583; relative viability ([3]; first compound 0.1265 µM): 0.594; relative viability ([3]; first compound 0.4 µM): 0.532; relative viability ([3]; first compound 1.265 µM): 0.507; relative viability ([4]; first compound 0.04 µM): 1.12; relative viability ([4]; first compound 0.1265 µM): 1.14; relative viability ([4]; first compound 0.4 µM): 1; relative viability ([4]; first compound 1.265 µM): 0.76; relative viability ([5]; first compound 0.04 µM): 1.02; relative viability ([5]; first compound 0.1265 µM): 0.911; relative viability ([5]; first compound 0.4 µM): 0.848; relative viability ([5]; first compound 1.265 µM): 0.748; relative viability ([6]; first compound 0.04 µM): 0.972; relative viability ([6]; first compound 0.1265 µM): 1.04; relative viability ([6]; first compound 0.4 µM): 1; relative viability ([6]; first compound 1.265 µM): 0.814; relative viability ([7]; first compound 0.04 µM): 0.815; relative viability ([7]; first compound 0.1265 µM): 0.83; relative viability ([7]; first compound 0.4 µM): 0.877; relative viability ([7]; first compound 1.265 µM): 0.777; relative viability ([8]; first compound 0.04 µM): 0.797; relative viability ([8]; first compound 0.1265 µM): 0.814; relative viability ([8]; first compound 0.4 µM): 0.783; relative viability ([8]; first compound 1.265 µM): 0.601; relative viability ([9]; first compound 0.04 µM): 0.912; relative viability ([9]; first compound 0.1265 µM): 0.849; relative viability ([9]; first compound 0.4 µM): 0.772; relative viability ([9]; first compound 1.265 µM): 0.547; relative viability ([10]; first compound 0.04 µM): 0.908; relative viability ([10]; first compound 0.1265 µM): 1.03; relative viability ([10]; first compound 0.4 µM): 0.997; relative viability ([10]; first compound 1.265 µM): 0.772

**Q.** How did the relative viability ([1]; 0.04 µM) turn out when EBC-1 was run?
**A.** Its relative viability is 0.924.

**Q.** And the relative viability ([1]; 0.1265 µM)?
**A.** The relative viability was 0.983.

**Q.** And the relative viability ([1]; 0.4 µM)?
**A.** Its relative viability is 0.989.

**Q.** What about the relative viability ([1]; 1.265 µM) of the same cell line?
**A.** Its relative viability is 0.815.

**Q.** What about the relative viability ([2]; first compound 0.04 µM) of the same cell line?
**A.** The relative viability was 0.737.

**Q.** What about the relative viability ([2]; first compound 0.1265 µM) of the same cell line?
**A.** Its relative viability is 0.82.

**Q.** And the relative viability ([2]; first compound 0.4 µM)?
**A.** Its relative viability is 0.868.

**Q.** What about the relative viability ([2]; first compound 1.265 µM) of the same cell line?
**A.** The relative viability was 0.816.

**Q.** And the relative viability ([3]; first compound 0.04 µM)?
**A.** Its relative viability is 0.675.

**Q.** What about the relative viability ([3]; first compound 0.1265 µM) of the same cell line?
**A.** Its relative viability is 0.657.

**Q.** And the relative viability ([3]; first compound 0.4 µM)?
**A.** The relative viability was 0.712.

**Q.** And the relative viability ([3]; first compound 1.265 µM)?
**A.** The relative viability was 0.566.

**Q.** What about the relative viability ([4]; first compound 0.04 µM) of the same cell line?
**A.** The relative viability was 0.237.

**Q.** And the relative viability ([4]; first compound 0.1265 µM)?
**A.** Its relative viability is 0.209.

**Q.** And the relative viability ([4]; first compound 0.4 µM)?
**A.** The relative viability was 0.196.

**Q.** And the relative viability ([4]; first compound 1.265 µM)?
**A.** The relative viability was 0.151.

**Q.** And the relative viability ([5]; first compound 0.04 µM)?
**A.** Its relative viability is 0.44.

**Q.** And the relative viability ([5]; first compound 0.1265 µM)?
**A.** The relative viability was 0.289.

**Q.** And the relative viability ([5]; first compound 0.4 µM)?
**A.** Its relative viability is 0.402.

**Q.** What about the relative viability ([5]; first compound 1.265 µM) of the same cell line?
**A.** The relative viability was 0.383.

**Q.** And the relative viability ([6]; first compound 0.04 µM)?
**A.** The relative viability was 0.854.

**Q.** What about the relative viability ([6]; first compound 0.1265 µM) of the same cell line?
**A.** The relative viability was 0.899.

**Q.** What about the relative viability ([6]; first compound 0.4 µM) of the same cell line?
**A.** Its relative viability is 0.91.

**Q.** What about the relative viability ([6]; first compound 1.265 µM) of the same cell line?
**A.** Its relative viability is 0.646.

**Q.** What about the relative viability ([7]; first compound 0.04 µM) of the same cell line?
**A.** Its relative viability is 0.114.

**Q.** What about the relative viability ([7]; first compound 0.4 µM) of the same cell line?
**A.** Its relative viability is 0.0911.

**Q.** What about the relative viability ([7]; first compound 1.265 µM) of the same cell line?
**A.** The relative viability was 0.101.

**Q.** And the relative viability ([8]; first compound 0.04 µM)?
**A.** Its relative viability is 0.178.

**Q.** And the relative viability ([8]; first compound 0.1265 µM)?
**A.** The relative viability was 0.182.

**Q.** And the relative viability ([8]; first compound 0.4 µM)?
**A.** The relative viability was 0.192.

**Q.** What about the relative viability ([8]; first compound 1.265 µM) of the same cell line?
**A.** Its relative viability is 0.178.

**Q.** And the relative viability ([9]; first compound 0.04 µM)?
**A.** Its relative viability is 0.364.

**Q.** And the relative viability ([9]; first compound 0.1265 µM)?
**A.** The relative viability was 0.391.

**Q.** And the relative viability ([9]; first compound 0.4 µM)?
**A.** Its relative viability is 0.491.

**Q.** And the relative viability ([9]; first compound 1.265 µM)?
**A.** Its relative viability is 0.416.

**Q.** What about the relative viability ([10]; first compound 0.04 µM) of the same cell line?
**A.** The relative viability was 0.622.

**Q.** What about the relative viability ([10]; first compound 0.1265 µM) of the same cell line?
**A.** Its relative viability is 0.638.

**Q.** And the relative viability ([10]; first compound 0.4 µM)?
**A.** The relative viability was 0.585.

**Q.** What about the relative viability ([10]; first compound 1.265 µM) of the same cell line?
**A.** The relative viability was 0.449.

**Q.** Which results are given for IA-LM?
**A.** relative viability ([1]; 0.04 µM): 0.963; relative viability ([1]; 0.1265 µM): 0.864; relative viability ([1]; 0.4 µM): 0.868; relative viability ([1]; 1.265 µM): 0.713; relative viability ([2]; first compound 0.04 µM): 0.827; relative viability ([2]; first compound 0.1265 µM): 0.691; relative viability ([2]; first compound 0.4 µM): 0.642; relative viability ([2]; first compound 1.265 µM): 0.688; relative viability ([11]; first compound 0.04 µM): 0.999; relative viability ([11]; first compound 0.1265 µM): 1.14; relative viability ([11]; first compound 0.4 µM): 0.954; relative viability ([11]; first compound 1.265 µM): 0.914; relative viability ([3]; first compound 0.04 µM): 0.768; relative viability ([3]; first compound 0.1265 µM): 0.732; relative viability ([3]; first compound 0.4 µM): 0.712; relative viability ([3]; first compound 1.265 µM): 0.503; relative viability ([4]; first compound 0.04 µM): 0.796; relative viability ([4]; first compound 0.1265 µM): 0.778; relative viability ([4]; first compound 0.4 µM): 0.66; relative viability ([4]; first compound 1.265 µM): 0.588; relative viability ([5]; first compound 0.04 µM): 0.328; relative viability ([5]; first compound 0.1265 µM): 0.396; relative viability ([5]; first compound 0.4 µM): 0.389; relative viability ([5]; first compound 1.265 µM): 0.303; relative viability ([6]; first compound 0.04 µM): 0.624; relative viability ([6]; first compound 0.1265 µM): 0.525; relative viability ([6]; first compound 0.4 µM): 0.687; relative viability ([6]; first compound 1.265 µM): 0.45; relative viability ([7]; first compound 0.04 µM): 1.21; relative viability ([7]; first compound 0.1265 µM): 1.21; relative viability ([7]; first compound 0.4 µM): 1.08; relative viability ([7]; first compound 1.265 µM): 0.701; relative viability ([8]; first compound 0.04 µM): 0.867; relative viability ([8]; first compound 0.1265 µM): 0.771; relative viability ([8]; first compound 0.4 µM): 0.645; relative viability ([8]; first compound 1.265 µM): 0.633; relative viability ([9]; first compound 0.04 µM): 0.917; relative viability ([9]; first compound 0.1265 µM): 0.621; relative viability ([9]; first compound 0.4 µM): 0.593; relative viability ([9]; first compound 1.265 µM): 0.496; relative viability ([10]; first compound 0.04 µM): 0.89; relative viability ([10]; first compound 0.1265 µM): 0.799; relative viability ([10]; first compound 0.4 µM): 0.747; relative viability ([10]; first compound 1.265 µM): 0.47

— the supplement of paper PMC10307832
